In ChEMBL document CHEMBL5729586, “Inhibitors of LRRK2 kinase” (2023) one finds IC50 data, which are given here for eight compounds.

The assay addresses Leucine-rich repeat serine/threonine-protein kinase 2 (Homo sapiens, UniProt Q5S007). The assay is described as follows: LRRK2 Enzymatic Assay: LRRKtide substrate (peptide sequence RLGRDKYKTLRQIRQ, derived from human ezrin [amino acids 561-573], moesin [amino acids 539-553] and radixin [amino acids 558-570], obtained from SignalChem, catalogue #L10-58, reconstituted in 20 mM Tris-HCl at pH 7.5 to a final concentration of 1 mg/mL, assay concentration 20 μM) and recombinant human LRRK2 (catalytic domain only [amino acids 970-2527], GST-tagged, expressed in insect cells, obtained from ThermoFisher Scientific, catalogue #PV4874, 0.35 mg/mL, assay concentration 30 nM) were mixed in assay buffer (20 mM Hepes pH 7.5, 10 mM MgCl, 1 mM EGTA, 0.02% Brij35, 0.02 mg/ml BSA, 0.1 mM NaVO, 2 mM DTT, 1% DMSO). Compounds of interest (in DMSO, serial 3-fold dilution from 10 μM to 0.5 nM) or control (1% DMSO) were dispensed into the kinase reaction mixture by Acoustic technology (Echo550; nanoliter range). After incubation at room temperature for 20 minutes, the kinase reaction was initiated by addition of [P]-ATP (Specific activity 10 μCi/μl) and the mixture was incubated at room temperature for 2 hours. The reaction was then stopped by spotting the reaction mixture on strips of phosphocellulose P81 paper. Following washing, the radioactivity of the P81 paper was measured and kinase activity data were expressed as the percent remaining kinase activity in test samples compared to vehicle (dimethyl sulfoxide) reactions.

Leucine-rich repeat serine/threonine-protein kinase 2, sequence (Q5S007 whole entry, the tested form may be a part): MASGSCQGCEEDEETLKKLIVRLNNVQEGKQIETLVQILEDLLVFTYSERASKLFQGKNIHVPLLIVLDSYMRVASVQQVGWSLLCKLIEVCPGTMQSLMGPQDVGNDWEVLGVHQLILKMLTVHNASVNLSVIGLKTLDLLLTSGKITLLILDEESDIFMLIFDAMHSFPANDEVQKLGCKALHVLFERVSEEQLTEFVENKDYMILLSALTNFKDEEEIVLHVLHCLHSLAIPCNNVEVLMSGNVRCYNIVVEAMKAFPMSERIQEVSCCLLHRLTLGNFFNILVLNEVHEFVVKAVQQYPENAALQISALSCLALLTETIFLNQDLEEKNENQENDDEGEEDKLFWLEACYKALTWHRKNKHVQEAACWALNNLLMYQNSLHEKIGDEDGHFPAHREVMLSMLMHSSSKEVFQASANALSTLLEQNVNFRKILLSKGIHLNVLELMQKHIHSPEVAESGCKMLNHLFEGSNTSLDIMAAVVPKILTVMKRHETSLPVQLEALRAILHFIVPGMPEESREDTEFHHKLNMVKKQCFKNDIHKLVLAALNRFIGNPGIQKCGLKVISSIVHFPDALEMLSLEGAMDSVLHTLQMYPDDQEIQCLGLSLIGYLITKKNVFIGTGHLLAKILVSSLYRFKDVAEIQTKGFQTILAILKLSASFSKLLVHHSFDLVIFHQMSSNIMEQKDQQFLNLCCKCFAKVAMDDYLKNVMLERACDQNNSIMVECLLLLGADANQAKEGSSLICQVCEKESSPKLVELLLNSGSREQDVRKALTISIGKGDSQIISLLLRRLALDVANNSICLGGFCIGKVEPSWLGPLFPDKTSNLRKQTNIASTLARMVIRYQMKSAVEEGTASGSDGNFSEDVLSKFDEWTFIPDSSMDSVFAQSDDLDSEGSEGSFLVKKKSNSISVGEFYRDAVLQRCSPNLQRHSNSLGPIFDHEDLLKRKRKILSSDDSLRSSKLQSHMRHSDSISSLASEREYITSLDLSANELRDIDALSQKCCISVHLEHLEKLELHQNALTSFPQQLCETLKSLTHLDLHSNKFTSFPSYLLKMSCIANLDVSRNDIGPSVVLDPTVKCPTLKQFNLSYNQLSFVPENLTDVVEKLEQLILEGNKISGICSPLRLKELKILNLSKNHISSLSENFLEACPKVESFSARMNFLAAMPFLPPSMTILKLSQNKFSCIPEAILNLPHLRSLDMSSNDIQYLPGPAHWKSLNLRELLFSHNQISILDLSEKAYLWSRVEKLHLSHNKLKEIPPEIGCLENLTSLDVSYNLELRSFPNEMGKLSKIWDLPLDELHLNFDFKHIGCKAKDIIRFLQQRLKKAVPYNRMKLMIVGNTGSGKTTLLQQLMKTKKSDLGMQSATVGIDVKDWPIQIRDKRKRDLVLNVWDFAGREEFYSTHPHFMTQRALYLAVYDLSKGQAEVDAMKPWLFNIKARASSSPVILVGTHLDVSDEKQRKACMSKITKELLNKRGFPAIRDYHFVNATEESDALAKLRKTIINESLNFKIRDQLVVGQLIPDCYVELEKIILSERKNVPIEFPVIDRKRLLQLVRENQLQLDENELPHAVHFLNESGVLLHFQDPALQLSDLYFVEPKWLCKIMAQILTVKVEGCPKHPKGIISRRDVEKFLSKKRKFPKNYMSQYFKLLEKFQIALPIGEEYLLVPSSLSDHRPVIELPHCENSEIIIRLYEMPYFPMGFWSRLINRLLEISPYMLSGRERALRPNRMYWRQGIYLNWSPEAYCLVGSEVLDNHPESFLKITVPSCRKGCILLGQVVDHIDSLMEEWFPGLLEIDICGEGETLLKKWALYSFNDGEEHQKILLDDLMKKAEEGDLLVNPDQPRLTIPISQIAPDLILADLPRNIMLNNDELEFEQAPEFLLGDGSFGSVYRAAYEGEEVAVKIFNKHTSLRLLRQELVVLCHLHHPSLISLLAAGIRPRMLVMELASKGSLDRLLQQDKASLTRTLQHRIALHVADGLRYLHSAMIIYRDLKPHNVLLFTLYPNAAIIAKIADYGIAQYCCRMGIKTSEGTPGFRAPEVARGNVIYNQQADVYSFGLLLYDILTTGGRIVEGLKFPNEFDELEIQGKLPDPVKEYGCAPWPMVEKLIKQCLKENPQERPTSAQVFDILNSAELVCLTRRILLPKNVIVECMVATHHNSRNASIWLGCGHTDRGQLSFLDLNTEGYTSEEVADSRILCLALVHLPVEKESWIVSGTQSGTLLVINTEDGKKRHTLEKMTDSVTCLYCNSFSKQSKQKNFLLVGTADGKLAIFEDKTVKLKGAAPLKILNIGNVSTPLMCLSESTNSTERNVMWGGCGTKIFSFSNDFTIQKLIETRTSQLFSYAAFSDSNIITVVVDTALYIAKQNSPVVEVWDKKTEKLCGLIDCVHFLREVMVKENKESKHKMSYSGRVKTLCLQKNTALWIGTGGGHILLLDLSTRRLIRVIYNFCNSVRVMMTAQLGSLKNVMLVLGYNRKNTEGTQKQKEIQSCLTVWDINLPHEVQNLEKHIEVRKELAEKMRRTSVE

`CN[C@H]1CC[C@H](COc2nc(Nc3cn(C(C)(C)C#N)nc3C)ncc2C2CC2)CC1`: the half-maximal inhibitory concentration (IC50) was below 50 nM.

`CC(N[C@H]1CC[C@H](COc2ccnc(Nc3ccc(N4CCOCC4)cc3)n2)CC1)C(F)(F)F` (stereo partly drawn): the IC50 was above 400 nM.

As for `CC(=O)N[C@H]1CC[C@@H](COc2nc(Nc3ccc(N4C[C@@H](C)O[C@@H](C)C4)cc3)ncc2F)C1`, the concentration for half-maximal inhibition (IC50) was below 50 nM.

Regarding `CC(=O)N[C@H]1CC[C@H](COc2nc(Nc3ccc(N4C[C@@H](C)O[C@@H](C)C4)cc3)ncc2C)CC1`, the concentration for half-maximal inhibition (IC50) is below 50 nM.

On to `CN[C@H]1CC[C@H](COc2nc(Nc3cnn(C(C)C)c3)ncc2Cl)CC1`, for which the IC50 was below 50 nM.

With `Cc1nn(C(C)(C)C#N)cc1Nc1ncc(F)c(OCC2CCNCC2(F)F)n1` (stereo not drawn), the IC50 is below 50 nM.

Take `FC(F)CN[C@H]1CC[C@H](COc2nc(Nc3ccc(N4CCOCC4)cc3)ncc2Cl)CC1`: the half-inhibitory concentration (IC50) was below 50 nM.

For the compound `CC(=O)N[C@H]1CC[C@H](COc2nc(Nc3cnn(CCO)c3)ncc2F)CC1`, the IC50 was below 50 nM.

One may read the IC50 as the concentration at which inhibition is half-maximal.
